Reference: patent US4383113A, “Agricultural sulfonamides” (E. I. Du Pont de Nemours and Company, priority 1981, dated 1983)

Experiments:
Assay in all cases: Test A post-emergence
Design in all cases: key: 0 = no effect, 10 = maximum effect; letter = response symbol
rice = format: in vivo
How it was run: (§1)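 Seeds and tubers were treated preemergence in a growth medium with compound in a nonphytotoxic solvent, against untreated controls; emerged plants such as two-leaf barnyardgrass and five-leaf cotton were sprayed postemergence, against solvent-sprayed controls. After sixteen days in a greenhouse, response was rated visually from 0 to 10.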

corn = format: in vivo
How it was run: as §1

wheat = format: in vivo
How it was run: as §1

sorghum = format: in vivo
How it was run: as §1

soybean = format: in vivo
How it was run: as §1

nutsedge = format: in vivo, Cyperus rotundus
How it was run: as §1

cassia = format: in vivo, Cassia tora
How it was run: as §1

wild oats = format: in vivo, Avena fatua
How it was run: as §1

barnyardgrass = format: in vivo, Echinochloa crusgalli
How it was run: as §1

crabgrass = format: in vivo, Digitaria spp.
How it was run: as §1

cotton = format: in vivo; conditions: 0.4 kg/ha
How it was run: as §1

cocklebur = format: in vivo, Xanthium spp.
How it was run: as §1

bush bean = format: in vivo, bush beans; conditions: 0.4 kg/ha
morningglory = format: in vivo, Ipomoea spp.
How it was run: as §1

Row | SMILES | response rating (rice; 0.4 kg/ha) | response rating (corn; 0.4 kg/ha) | response rating (wheat; 0.4 kg/ha) | response rating (sorghum; 0.4 kg/ha) | response rating (soybean; 0.4 kg/ha) | response rating (nutsedge; 0.4 kg/ha) | response rating (cassia; 0.4 kg/ha) | response rating (wild oats; 0.4 kg/ha) | response rating (barnyardgrass; 0.4 kg/ha) | response rating (crabgrass; 0.4 kg/ha) | response rating (cotton) [C] | response rating (cocklebur; 0.4 kg/ha) [C] | response rating (bush bean) [C] | response rating (morningglory; 0.4 kg/ha) [C] | other results
1 | CCCCCCCCCCOC(=O)c1ccccc1S(=O)(=O)NC(=O)Nc1nc(OC)nc(OC)n1 [drawing 429] | 2G | 6H | 0 | 7H | 7G | 3G | 5G | 0 | 1C | 3G | – | – | – | – | –
2 | COc1cc(C)nc(NC(=O)NS(=O)(=O)c2ccccc2C(=O)OCCOc2ccccc2)n1 [drawing 461] | – | – | – | 8G | 9C | 8G | – | – | 9C | 4G | 9 | 10 | 9 | 9 | –
3 | COC(=O)c1ccccc1S(=O)(=O)NC(=O)Nc1nc(OC)nc(OC)n1 [drawing 416] | 10C | 10C | – | 9C | 9C | 9C | 9C | – | 10C | 9C | – | 9 | 9 | 10 | –
4 | COc1cc(C)nc(NC(=O)NS(=O)(=O)c2ccccc2C(=O)N(C)C)n1 [drawing 465] | 9C | 9C | 9C | 9C | 9C | – | 9C | 9C | 10C | – | – | – | – | 10 | –
5 | COC(=O)c1cc(Cl)ccc1S(=O)(=O)NC(=O)Nc1nc(C)cc(OC)n1 [drawing 434] | 9C | 9H | – | – | – | – | 9C | – | – | 3G | – | 10 | – | 10 | –
6 | COCCc1nc(NC(=O)NS(=O)(=O)c2ccccc2C(=O)OC)nc(OC)n1 [drawing 474] | – | 9C | 1C | – | 9C | – | – | – | – | 9C | 9 | – | 9 | 10 | –
7 | COC(=O)c1ccccc1S(=O)(=O)NC(=O)Nc1nnc(C)c(C)n1 [drawing 417] | – | – | – | – | – | – | – | – | – | – | – | – | – | – | response rating (rice; 2 kg/ha): 9C; response rating (wheat; 2 kg/ha): 10C; response rating (sorghum; 2 kg/ha): 9C; response rating (soybean; 2 kg/ha): 9C; response rating (nutsedge; 2 kg/ha): 9C; response rating (cassia; 2 kg/ha): 9C; response rating (wild oats; 2 kg/ha): 9C; response rating (cocklebur; 2 kg/ha): 9C; response rating (barnyardgrass; 2 kg/ha): 9C; response rating (crabgrass; 2 kg/ha): 9C
8 | COc1cc(C)nc(NC(=O)NS(=O)(=O)c2ccccc2C(=O)SC)n1 [drawing 477] | – | 9C | – | 9C | 9C | – | 9C | – | 9C | – | 9 | 9 | 9 | 9 | –
9 | COc1nc(NC(=O)NS(=O)(=O)c2ccccc2C(=O)OC2CCCCC2)nc(OC)n1 [drawing 432] | 2G | 6H | 0 | 3G | – | 2G | 5C | 0 | – | 0 | – | – | – | – | –
10 | COc1cc(C)nc(NC(=O)NS(=O)(=O)c2ccccc2C(=O)NCc2ccccc2)n1 [drawing 464] | – | 10C | 9C | 9C | 9C | – | – | 9C | 9C | – | 9 | 9 | 9 | 10 | –
11 | Cc1cc(C)nc(NC(=O)NS(=O)(=O)c2ccccc2C(=O)O)n1 [drawing 444] | – | – | – | – | – | – | – | – | – | 2G | – | – | – | – | response rating (rice; 10 kg/ha): 5G; response rating (sorghum; 10 kg/ha): 3G; response rating (soybean; 10 kg/ha): 1C; response rating (barnyardgrass; 10 kg/ha): 2G
12 | CCCCCCCCCCOC(=O)c1ccccc1S(=O)(=O)NC(=O)Nc1nc(OC)cc(OC)n1 [drawing 427] | 8G | – | 1C | 9G | 1H | 2G | 5G | 1C | – | 2G | – | – | – | 1 | –
13 | CCCCOC(=O)c1ccccc1S(=O)(=O)NC(=O)Nc1nc(C)cc(OC)n1 [drawing 440] | – | – | – | – | – | – | – | 8G | 10C | 3G | – | 9 | – | 9 | response rating (rice; 2 kg/ha): 8C; response rating (corn; 2 kg/ha): 9C; response rating (wheat; 2 kg/ha): 8C; response rating (sorghum; 2 kg/ha): 9C; response rating (soybean; 2 kg/ha): 9C; response rating (nutsedge; 2 kg/ha): 9C; response rating (cassia; 2 kg/ha): 9C; response rating (cocklebur; 2 kg/ha): 10C; response rating (barnyardgrass; 2 kg/ha): 10C; response rating (morningglory; 2 kg/ha): 10C
14 | CCOCCSc1cc(C)nc(NC(=O)NS(=O)(=O)c2ccccc2C(=O)OC)n1 [drawing 469] | 8G | 9H | 6G | 9G | – | 8G | – | – | – | – | – | 2 | 9 | – | –
15 | COCCCOc1cc(C)nc(NC(=O)NS(=O)(=O)c2ccccc2C(=O)OC)n1 [drawing 470] | 8C | 9C | – | 9C | 8C | 9C | 9C | – | 9C | 9C | – | – | 9 | – | –
16 | COC(=O)c1ccccc1S(=O)(=O)NC(=O)Nc1nc(C)cc(OC)n1 [drawing 413] | – | 10C | 9C | 9C | 9C | 9C | 9C | 9C | 9C | – | 9 | 9 | 9 | 10 | –
17 | COc1cc(OC)nc(NC(=O)NS(=O)(=O)c2ccccc2C(=O)OCCCl)n1 [drawing 420] | – | – | – | 10C | 10C | 9C | 9C | – | 10C | – | 9 | 10 | 9 | 10 | –
18 | C=CCOC(=O)c1ccccc1S(=O)(=O)NC(=O)Nc1nc(C)nc(OC)n1 [drawing 451] | 9C | 9C | 9C | 9C | 9C | – | 9C | 9C | 9C | – | – | 10 | 9 | 10 | –
19 | CCCCCCCCCCOC(=O)c1ccccc1S(=O)(=O)NC(=O)Nc1nc(C)nc(OC)n1 [drawing 430] | 6G | 7H | 0 | – | 6H | 2G | – | 0 | 2H | 0 | – | – | – | – | –
20 | COC(=O)c1cc(F)ccc1S(=O)(=O)NC(=O)Nc1nc(C)nc(OC)n1 [drawing 450] | 9C | 9C | 0 | – | – | – | 9C | 0 | – | 9C | – | – | 9 | 9 | –
21 | CNC(=O)c1ccccc1S(=O)(=O)NC(=O)Nc1nc(C)cc(OC)n1 [drawing 466] | – | 10C | 9C | 10C | 9C | 10C | 9C | 9C | 9C | 9C | 10 | 9 | 9 | 10 | –
22 | COC(=O)c1cc(Cl)c(Cl)cc1S(=O)(=O)NC(=O)Nc1nc(C)cc(OC)n1 [drawing 452] | 2C | 2G | 0 | 5G | – | 6G | 2C | 0 | 7H | 2G | – | – | – | – | –
